Test results as given in patent US8796308B2, “Modulators of cystic fibrosis transmembrane conductance regulator” (Vertex Pharmaceuticals Incorporated, priority 2009, dated 2014).
Values after ≈ are worked out from the molar mass of the structure shown.

Experiments:
[1] = High throughput shake flask (HTSF) solubility at pH 7.4; type: physicochemical; conditions: aqueous buffer, kinetic from dmso stock; pH 7.4 phosphate buffer with 2% DMSO, shaken overnight
Method: A high throughput shake flask assay was used to determine solubility of compounds in pH 7.4 buffer. To calculate the concentration of compounds in solution, two conditions per compound were run: 300 uM in 100% DMSO and 200 uM in pH 7.4 phosphate buffer with 2% DMSO present. Each sample was left to shake overnight then injected onto HPLC-UV to determine peak area using the following conditions: Phenomenex 00A-4251-B0-30×2.00 mm Luna 3u C18(2) 100A column; 0.8 mL/min flow rate; 20 uL injection volume; HPLC grade water with 0.1% formic acid and HPLC grade acetonitrile with 0.1% formic acid mobile phases; peak area determined at 254 nm. Solubility in uM was calculated using the following equation: conc.=(peak area pH 7.4)/(peak area 300 uM DMSO standard condition)*300 uM concentration of standard condition. Peaks of interest were identified in buffer conditions based on retention time (RT) of the largest area peak in the 300 uM DMSO standard condition.

[2] = target: T1, ΔF508-CFTR in NIH 3T3 cells (Homo sapiens, UniProt P13569, DEL508-508); assay: Membrane potential optical potentiator assay (FLIPR III); type: cell-based; conditions: temperature-corrected ΔF508 CFTR NIH 3T3 cells, forskolin
T1 construct: expressed in transfected cells
From the text: The assay utilizes fluorescent voltage sensing dyes to measure changes in membrane potential using a fluorescent plate reader (e.g., FLIPR III, Molecular Devices, Inc.) as a readout for increase in functional ΔF508-CFTR in NIH 3T3 cells. The driving force for the response is the creation of a chloride ion gradient in conjunction with channel activation by a single liquid addition step after the cells have previously been treated with compounds and subsequently loaded with a voltage sensing dye.
To identify potentiators of ΔF508-CFTR, a double-addition HTS assay format was developed. This HTS assay utilizes fluorescent voltage sensing dyes to measure changes in membrane potential on the FLIPR III as a measurement for increase in gating (conductance) of ΔF508 CFTR in temperature-corrected ΔF508 CFTR NIH 3T3 cells. The driving force for the response is a Cl^− ion gradient in conjunction with channel activation with forskolin in a single liquid addition step using a fluorescent plate reader such as FLIPR III after the cells have previously been treated with potentiator compounds (or DMSO vehicle control) and subsequently loaded with a redistribution dye.
Solutions • Bath Solution #1: (in mM) NaCl 160, KCl 4.5, CaCl2 2, MgCl2 1, HEPES 10, pH 7.4 with NaOH. • Chloride-free bath solution: Chloride salts in Bath Solution #1 are substituted with gluconate salts. […]

ΔF508-CFTR in HBE = target: T2, ΔF508-CFTR in HBE (Homo sapiens, UniProt P13569, DEL508-508); assay: Ussing chamber assay, Δ508-HBE; type: cell-based; conditions: HBE from patients homozygous for ΔF508-CFTR
T2 construct: CF-HBE were isolated from patients homozygous for ΔF508-CFTR; endogenous in cells; host or cells: primary bronchial epithelial cells (HBE) from CF patients homozygous for ΔF508
Method: Ussing chamber experiments were performed on polarized airway epithelial cells expressing ΔF508-CFTR to further characterize the ΔF508-CFTR modulators identified in the optical assays. Non-CF and CF airway epithelia were isolated from bronchial tissue, cultured as previously described (Galietta, L. J. V., Lantero, S., Gazzolo, A., Sacco, O., Romano, L., Rossi, G. A., & Zegarra-Moran, O. (1998) In Vitro Cell. Dev. Biol. 34, 478-481), and plated onto Costar® Snapwell™ filters that were pre-coated with NIH3T3-conditioned media. After four days the apical media was removed and the cells were grown at an air liquid interface for >14 days prior to use. […] CF-HBE were isolated from patients homozygous for ΔF508-CFTR.
HBE grown on Costar® Snapwell™ cell culture inserts were mounted in an Ussing chamber (Physiologic Instruments, Inc., San Diego, Calif.), and the transepithelial resistance and short-circuit current in the presence of a basolateral to apical Cl^− gradient (ISC) were measured using a voltage-clamp system (Department of Bioengineering, University of Iowa, Iowa). Briefly, HBE were examined under voltage-clamp recording conditions (Vhold=0 mV) at 37° C. […]

Δ508/G551D-HBE = Δ508/G551D-HBE (Homo sapiens, UniProt P13569, G551D); assay: Ussing chamber assay, Δ508/G551D-HBE; type: cell-based
[3] = HLM/RLM stability, % remaining at 30 min; type: in vitro ADME
CaV 1.2 = CaV 1.2 (Homo sapiens, UniProt Q13936); assay: CaV 1.2 inhibition

T2 sequence (P13569 with tags, fused parts or gaps DEL508-508): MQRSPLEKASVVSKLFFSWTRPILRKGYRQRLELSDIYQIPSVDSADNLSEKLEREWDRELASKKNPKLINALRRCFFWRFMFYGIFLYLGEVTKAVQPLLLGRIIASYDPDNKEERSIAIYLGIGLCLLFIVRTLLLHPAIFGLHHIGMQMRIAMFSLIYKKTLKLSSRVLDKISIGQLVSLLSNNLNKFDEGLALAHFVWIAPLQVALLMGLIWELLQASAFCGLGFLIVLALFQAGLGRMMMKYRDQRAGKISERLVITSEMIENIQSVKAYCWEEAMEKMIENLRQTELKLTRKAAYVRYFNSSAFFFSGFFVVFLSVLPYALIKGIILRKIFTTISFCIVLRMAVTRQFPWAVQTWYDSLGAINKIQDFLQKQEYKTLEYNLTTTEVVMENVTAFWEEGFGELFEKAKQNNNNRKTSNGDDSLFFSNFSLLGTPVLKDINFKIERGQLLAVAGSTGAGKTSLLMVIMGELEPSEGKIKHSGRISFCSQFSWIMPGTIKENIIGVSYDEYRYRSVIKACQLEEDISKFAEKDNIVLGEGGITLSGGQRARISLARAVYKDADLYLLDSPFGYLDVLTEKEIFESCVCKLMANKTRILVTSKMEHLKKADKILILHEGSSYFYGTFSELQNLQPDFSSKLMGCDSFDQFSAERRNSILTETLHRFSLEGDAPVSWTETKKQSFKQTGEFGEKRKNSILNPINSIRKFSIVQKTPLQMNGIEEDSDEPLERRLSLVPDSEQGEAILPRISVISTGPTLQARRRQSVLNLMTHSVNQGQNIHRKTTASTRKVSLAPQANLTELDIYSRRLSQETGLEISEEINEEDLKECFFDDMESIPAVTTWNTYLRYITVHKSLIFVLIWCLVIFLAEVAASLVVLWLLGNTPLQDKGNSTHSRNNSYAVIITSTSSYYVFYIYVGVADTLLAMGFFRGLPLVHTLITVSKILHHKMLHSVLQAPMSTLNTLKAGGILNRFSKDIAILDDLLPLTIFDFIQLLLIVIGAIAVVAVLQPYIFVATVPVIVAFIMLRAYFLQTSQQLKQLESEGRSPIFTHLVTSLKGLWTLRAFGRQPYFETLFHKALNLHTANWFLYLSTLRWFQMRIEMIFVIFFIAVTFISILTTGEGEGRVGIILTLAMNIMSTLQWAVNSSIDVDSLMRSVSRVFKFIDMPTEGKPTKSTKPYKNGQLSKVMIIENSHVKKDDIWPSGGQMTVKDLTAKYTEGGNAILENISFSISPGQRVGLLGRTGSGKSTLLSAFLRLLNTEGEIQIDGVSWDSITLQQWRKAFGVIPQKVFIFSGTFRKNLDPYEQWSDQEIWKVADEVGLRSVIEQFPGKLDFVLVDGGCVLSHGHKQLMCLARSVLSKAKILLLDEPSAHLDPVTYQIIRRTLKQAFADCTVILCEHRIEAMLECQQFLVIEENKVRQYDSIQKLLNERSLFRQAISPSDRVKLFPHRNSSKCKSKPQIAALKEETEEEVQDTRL
T1 sequence (P13569 with tags, fused parts or gaps DEL508-508): as above
Δ508/G551D-HBE, sequence (P13569 whole entry G551D, stated change not applied): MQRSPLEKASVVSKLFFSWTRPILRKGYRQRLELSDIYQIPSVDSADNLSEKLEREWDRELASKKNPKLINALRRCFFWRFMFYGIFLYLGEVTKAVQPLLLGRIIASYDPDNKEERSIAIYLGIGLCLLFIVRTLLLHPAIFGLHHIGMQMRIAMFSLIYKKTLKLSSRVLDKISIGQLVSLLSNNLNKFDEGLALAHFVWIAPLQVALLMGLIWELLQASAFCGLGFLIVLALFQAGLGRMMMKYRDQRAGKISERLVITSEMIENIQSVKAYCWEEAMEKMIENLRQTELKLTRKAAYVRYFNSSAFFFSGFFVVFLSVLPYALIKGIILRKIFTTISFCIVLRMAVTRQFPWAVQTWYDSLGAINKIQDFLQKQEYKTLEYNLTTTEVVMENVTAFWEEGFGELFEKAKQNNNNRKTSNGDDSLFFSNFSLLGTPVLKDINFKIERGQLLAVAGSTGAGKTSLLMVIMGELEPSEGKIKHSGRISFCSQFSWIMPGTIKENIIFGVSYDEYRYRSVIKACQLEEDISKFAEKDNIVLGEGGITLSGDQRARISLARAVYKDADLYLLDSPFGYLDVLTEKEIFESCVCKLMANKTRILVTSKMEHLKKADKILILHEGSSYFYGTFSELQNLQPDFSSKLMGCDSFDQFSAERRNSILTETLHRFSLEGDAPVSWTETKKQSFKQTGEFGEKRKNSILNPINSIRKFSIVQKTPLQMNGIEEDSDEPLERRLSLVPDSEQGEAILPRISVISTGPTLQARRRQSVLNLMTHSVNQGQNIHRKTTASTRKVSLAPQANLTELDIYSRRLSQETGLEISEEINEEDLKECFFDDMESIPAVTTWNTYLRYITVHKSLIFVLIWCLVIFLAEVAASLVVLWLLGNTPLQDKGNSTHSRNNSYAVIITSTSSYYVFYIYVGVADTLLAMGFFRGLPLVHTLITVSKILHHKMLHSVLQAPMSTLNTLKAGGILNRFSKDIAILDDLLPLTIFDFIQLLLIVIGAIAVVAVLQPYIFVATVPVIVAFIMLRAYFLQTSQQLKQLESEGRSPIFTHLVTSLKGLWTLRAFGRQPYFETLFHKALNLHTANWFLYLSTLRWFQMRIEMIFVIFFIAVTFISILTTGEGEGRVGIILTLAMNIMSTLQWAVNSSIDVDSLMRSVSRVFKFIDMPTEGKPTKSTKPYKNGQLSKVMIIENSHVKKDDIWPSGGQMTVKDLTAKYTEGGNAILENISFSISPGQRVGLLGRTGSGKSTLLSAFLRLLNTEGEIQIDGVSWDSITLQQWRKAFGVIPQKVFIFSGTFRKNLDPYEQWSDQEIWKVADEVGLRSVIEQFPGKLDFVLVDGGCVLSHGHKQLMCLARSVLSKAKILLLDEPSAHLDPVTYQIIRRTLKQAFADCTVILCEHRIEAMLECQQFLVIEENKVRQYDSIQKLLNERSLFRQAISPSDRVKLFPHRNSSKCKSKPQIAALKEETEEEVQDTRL
Δ508/G551D-HBE, sequence (P13569 whole entry G551D, stated change not applied): as above

| Compound | solubility [1] | EC50 [2] | EC50 (ΔF508-CFTR in HBE) | EC50 (Δ508/G551D-HBE) | HLM/RLM (% remain. @ 30 min) [3] | IC50 (CaV 1.2) |
| --- | --- | --- | --- | --- | --- | --- |
| CC(C)(C)c1cc(C(C)(C)CO)c(O)cc1NC(=O)c1c[nH]c2ccccc2c1=O [Compound 27, N-(2-tert-butyl-5-hydroxy-4-(1-hydroxy-2-methylpropan-2-yl)phenyl)-4-oxo-1,4-dihydroquinoline-3-carboxamide] | 87 µM (≈ 35.5 µg/mL) | < 2 µM | < 2 µM | < 2 µM | ++ (“++” if efficacy was calculated to be from 100% to 25%) | > 5 µM |
| CC(C)(C)c1cc(C(C)(C)C(=O)O)c(O)cc1NC(=O)c1c[nH]c2ccccc2c1=O [Compound 28, 2-(5-tert-butyl-2-hydroxy-4-(4-oxo-1,4-dihydroquinoline-3-carboxamido)phenyl)-2-methylpropanoic acid] | > 200 µM | 2 to 5 µM | < 2 µM | 2 to 5 µM | +++ (“+++” if efficacy was calculated to be greater than 100%) |  |
